Measurements from the supplement of paper PMC11451515.

Test system: P12-Ichikawa
Test: cell viability relative to DMSO control; higher = less cytotoxic
Settings: 48 h
Procedure, shortened: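 Viability was expressed as a per-plate percentage of DMSO wells, with cell-free wells as background. Leukemia cells (NOMO1 or SEM at 500 cells/well, P12-Ichikawa at 1000 cells/well) were adapted for at least four passages in each medium and seeded in 1536-well plates (5 μl). Library compounds in DMSO were pin-dosed over an 11-point threefold series from 47 μM to 0.79 nM, and CellTiter-Glo One luminescence was read after 48 h at 37°C.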

[1] = HPLM + 10% dialyzed FBS, 0.000781 µM
[2] = HPLM + 10% dialyzed FBS, 0.00234 µM
[3] = HPLM + 10% dialyzed FBS, 0.00702 µM
[4] = HPLM + 10% dialyzed FBS, 0.0211 µM
[5] = HPLM + 10% dialyzed FBS, 0.0632 µM
[6] = HPLM + 10% dialyzed FBS, 0.19 µM
[7] = HPLM + 10% dialyzed FBS, 0.569 µM
[8] = HPLM + 10% dialyzed FBS, 1.71 µM
[9] = HPLM + 10% dialyzed FBS, 5.12 µM
[10] = HPLM + 10% dialyzed FBS, 15.4 µM
[11] = HPLM + 10% dialyzed FBS, 46.1 µM
[12] = RPMI 5 mM glucose + 10% FBS, 0.000781 µM
[13] = RPMI 5 mM glucose + 10% FBS, 0.00234 µM
[14] = RPMI 5 mM glucose + 10% FBS, 0.00702 µM
[15] = RPMI 5 mM glucose + 10% FBS, 0.0211 µM
[16] = RPMI 5 mM glucose + 10% FBS, 0.0632 µM
[17] = RPMI 5 mM glucose + 10% FBS, 0.19 µM
[18] = RPMI 5 mM glucose + 10% FBS, 0.569 µM
[19] = RPMI 5 mM glucose + 10% FBS, 1.71 µM
[20] = RPMI 5 mM glucose + 10% FBS, 5.12 µM
[21] = RPMI 5 mM glucose + 10% FBS, 15.4 µM
[22] = RPMI 5 mM glucose + 10% FBS, 46.1 µM
[23] = RPMI 5 mM glucose + 10% dialyzed FBS, 0.000781 µM
[24] = RPMI 5 mM glucose + 10% dialyzed FBS, 0.00234 µM
[25] = RPMI 5 mM glucose + 10% dialyzed FBS, 0.00702 µM
[26] = RPMI 5 mM glucose + 10% dialyzed FBS, 0.0211 µM
[27] = RPMI 5 mM glucose + 10% dialyzed FBS, 0.0632 µM
[28] = RPMI 5 mM glucose + 10% dialyzed FBS, 0.19 µM
[29] = RPMI 5 mM glucose + 10% dialyzed FBS, 0.569 µM
[30] = RPMI 5 mM glucose + 10% dialyzed FBS, 1.71 µM
[31] = RPMI 5 mM glucose + 10% dialyzed FBS, 5.12 µM
[32] = RPMI 5 mM glucose + 10% dialyzed FBS, 15.4 µM
[33] = RPMI 5 mM glucose + 10% dialyzed FBS, 46.1 µM

Compound | cell viability [1] [%] | cell viability [2] [%] | cell viability [3] [%] | cell viability [4] [%] | cell viability [5] [%] | cell viability [6] [%] | cell viability [7] [%] | cell viability [8] [%] | cell viability [9] [%] | cell viability [10] [%] | cell viability [11] [%] | cell viability [12] [%] | cell viability [13] [%] | cell viability [14] [%] | cell viability [15] [%] | cell viability [16] [%] | cell viability [17] [%] | cell viability [18] [%] | cell viability [19] [%] | cell viability [20] [%] | cell viability [21] [%] | cell viability [22] [%] | cell viability [23] [%] | cell viability [24] [%] | cell viability [25] [%] | cell viability [26] [%] | cell viability [27] [%] | cell viability [28] [%] | cell viability [29] [%] | cell viability [30] [%] | cell viability [31] [%] | cell viability [32] [%] | cell viability [33] [%]
Cc1cc(Nc2nc(N[C@@H](C)c3ccc(F)cc3)c(C#N)cc2F)n[nH]1 | 105 | 101 | 96.7 | 105 | 102 | 102 | 101 | 94.2 | 22.1 | 27.6 | 56.8 | 104 | 103 | 106 | 105 | 98.9 | 100 | 107 | 93 | 23 | 44.7 | 53.1 | 96.7 | 89.5 | 104 | 97.4 | 95.6 | 104 | 87.5 | 84.4 | 34.2 | 45.4 | 54.8
CC[C@H](NC(=O)[C@H](C)NC)C(=O)N1C[C@@H](O)C[C@H]1Cc1c(-c2[nH]c3cc(F)ccc3c2C[C@@H]2C[C@H](O)CN2C(=O)[C@H](CC)NC(=O)[C@H](C)NC)[nH]c2cc(F)ccc12 | 115 | 129 | 124 | 137 | 137 | 125 | 139 | 131 | 32.8 | 31.3 | 110 | – | – | – | – | – | – | – | – | – | – | – | – | – | – | – | – | – | – | – | – | – | –
NCCCCNCCCN | 108 | 108 | 115 | 108 | 110 | 121 | 115 | 116 | 109 | 104 | 41.4 | 110 | 109 | 113 | 114 | 114 | 118 | 123 | 118 | 105 | 73.7 | 3.31 | 101 | 102 | 98.4 | 116 | 104 | 111 | 115 | 111 | 115 | 87 | 6.5
Cn1cc(/C=C2\C(=O)Nc3cccnc32)c2ccccc21 | 116 | 124 | 127 | 121 | 133 | 133 | 124 | 134 | 126 | 15.5 | 16.6 | – | – | – | – | – | – | – | – | – | – | – | – | – | – | – | – | – | – | – | – | – | –
CN[C@@H](C)C(=O)N[C@H]1CN(C(=O)CC(C)C)CC[C@H]2CC[C@@H](C(=O)NC(c3ccccc3)c3ccccc3)N2C1=O | 98.3 | 104 | 107 | 111 | 110 | 102 | 103 | 100 | 96.7 | 14.8 | 10.2 | 96.8 | 110 | 109 | 111 | 114 | 112 | 112 | 108 | 87.3 | 18.1 | 10.2 | 90.1 | 113 | 101 | 115 | 105 | 111 | 112 | 107 | 97.8 | 43.3 | 16.1
C/C(O)=C(\C#N)C(=O)Nc1cc(Br)ccc1Br | 105 | 110 | 114 | 109 | 109 | 109 | 108 | 105 | 99.6 | 97.9 | 95 | 100 | 109 | 104 | 108 | 105 | 107 | 100 | 101 | 104 | 96.4 | 86.5 | 106 | 113 | 114 | 109 | 106 | 104 | 103 | 116 | 96.3 | 94.5 | 94.5
Nc1ncnc2ccccc12 | 87.8 | 92.3 | 95.5 | 9.38 | 106 | 100 | 106 | 105 | 105 | 100 | 111 | 84.2 | 90.7 | 88.3 | 13.7 | 104 | 102 | 105 | 97.2 | 97.8 | 104 | 104 | 86.2 | 91.8 | 93.5 | 28.2 | 102 | 102 | 100 | 92.3 | 103 | 99.1 | 94
CC(/C=C/C(=O)NO)=C\[C@@H](C)C(=O)c1ccc(N(C)C)cc1 | 111 | 115 | 114 | 107 | 109 | 114 | 90.5 | 48.4 | 3.82 | 1.6 | 0.388 | 116 | 116 | 119 | 114 | 119 | 111 | 98.3 | 28.3 | 2.14 | 1.05 | 0.409 | 107 | 113 | 109 | 116 | 110 | 107 | 91.8 | 29.8 | 2.07 | 1.68 | 0.629
C[S+](=O)([O-])c1cccc(CNc2nc(Nc3ccc4c(c3)CCC(=O)N4)ncc2C(F)(F)F)c1 | 114 | 122 | 112 | 111 | 110 | 107 | 106 | 102 | 106 | 96.7 | 14.3 | 119 | 120 | 113 | 120 | 108 | 111 | 113 | 103 | 101 | 89.9 | 25.9 | 110 | 120 | 120 | 113 | 111 | 110 | 106 | 114 | 104 | 94.3 | 32.3
CN1CCC[C@@H]1CCO[C@](C)(c1ccccc1)c1ccc(Cl)cc1 | 94.5 | 100 | 99.3 | 113 | 105 | 104 | 104 | 107 | 112 | 109 | 97.2 | 97.8 | 104 | 106 | 104 | 108 | 98.1 | 104 | 114 | 100 | 119 | 101 | 93.9 | 101 | 111 | 106 | 103 | 100 | 105 | 102 | 104 | 108 | 90
COc1ccc2c(c1)c(CC(=O)OCC(=O)O)c(C)n2C(=O)c1ccc(Cl)cc1 | 119 | 126 | 118 | 113 | 116 | 114 | 112 | 118 | 112 | 116 | 108 | – | – | – | – | – | – | – | – | – | – | – | 120 | 125 | 116 | 139 | 116 | 119 | 120 | 113 | 115 | 113 | 107
CC(C)c1cc(C(=O)N2Cc3ccc(CN4CCN(C)CC4)cc3C2)c(O)cc1O | 118 | 121 | 123 | 106 | 124 | 109 | 89.3 | 65.8 | 54.7 | 52.8 | 51.4 | 115 | 119 | 115 | 105 | 114 | 97.7 | 56.4 | 52.5 | 41.3 | 40.7 | 39.8 | 119 | 122 | 125 | 112 | 125 | 112 | 65.3 | 50 | 43.3 | 44.5 | 43.3
COc1cc2nc(-c3cc(F)ccc3O)nc(N[C@@H]3CNC[C@H]3C(C)(C)O)c2cc1OC | 104 | 104 | 106 | 110 | 110 | 109 | 114 | 120 | 80.5 | 76.6 | 56.5 | 108 | 104 | 111 | 111 | 118 | 128 | 119 | 129 | 83.5 | 67.8 | 44.3 | 116 | 123 | 117 | 113 | 121 | 116 | 124 | 115 | 69.6 | 48.5 | 37.5
NC(=O)C1CCCc2c1[nH]c1ccc(Cl)cc21 (configuration not stated) | 112 | 112 | 113 | 114 | 115 | 110 | 105 | 102 | 83.4 | 46.2 | 38.2 | 107 | 111 | 111 | 104 | 108 | 112 | 109 | 109 | 103 | 59.8 | 32.3 | 114 | 101 | 112 | 107 | 112 | 106 | 111 | 94.4 | 93.8 | 48.2 | 18.3
C[C@]12CC[C@H]3[C@@H](CCC/4=C/C(=O)CC[C@]34C)[C@@H]1CC[C@@H]2O | 111 | 121 | 121 | 126 | 128 | 124 | 128 | 132 | 126 | 125 | 127 | – | – | – | – | – | – | – | – | – | – | – | – | – | – | – | – | – | – | – | – | – | –
COC[C@H](c1ccc(C(F)(F)F)cc1)N1CCN(C2(C)CCN(C(=O)c3c(C)ncnc3C)CC2)C[C@H]1C.O=C(O)/C=C\C(=O)O | 92 | 100 | 107 | 111 | 107 | 110 | 113 | 117 | 106 | 103 | 98.5 | 101 | 123 | 109 | 110 | 106 | 121 | 109 | 104 | 105 | 99.8 | 99.3 | 90.1 | 108 | 99.7 | 110 | 103 | 111 | 117 | 110 | 102 | 95.2 | 92.1
CNCc1ccc(-c2[nH]c3cc(F)cc4c3c2CCNC4=O)cc1 | 109 | 124 | 121 | 121 | 124 | 126 | 130 | 119 | 122 | 123 | 119 | – | – | – | – | – | – | – | – | – | – | – | – | – | – | – | – | – | – | – | – | – | –
